Reference: patent US8518707B2, “Method of monitoring adsorbent bed breakthrough in a process for producing alkyl esters from vegetable or animal oil and from an aliphatic monoalcohol” (IFP Energies Novelles, priority 2008, dated 2013)

Experiments:
[1] = cited from earlier work
[2] = Soluble glycerol in the ester stream after methanol evaporation (Esterfip-H process); assay type: physicochemical; conditions: methyl ester stream after alcohol evaporation, ambient temperature
Source text: In the Esterfip-H™ process developed by IFP and using a heterogeneous catalyst, separation between the glycerol and the ester produced occurs in several stages. In fact, methanol acting as a co-solubilizing agent for the methyl esters and the glycerol, the alcohol evaporation stage carried out at the reaction section outlet makes part of the glycerol present in the stream, in a proportion ranging between 0.1 and 5% by mass, insoluble. The soluble part represents, at ambient temperature, 500 to 700 ppm mass, the allowable maximum content set by the European standard being 200 ppm mass of free glycerol. Both the insoluble glycerol and part of the soluble glycerol therefore have to be separated. Separation is first performed through gravity decantation in a decanter drum. The ester stream flowing from the decanter is then sent to a coalescer. The glycerin phase stream is withdrawn at the bottom point of the coalescer. Methods allowing these two separation stages to be improved are described in the patent applications filed by the assignee under No. FR-07/04,711 and FR-07/04,715.

[3] = Solubility limit of glycerol in vegetable rape oil methyl ester (equilibrium with excess glycerol, GC per EN 14,214); assay type: physicochemical; conditions: solubility limit in vegetable rape oil methyl ester phase
Source text: It has therefore been necessary to determine it. Experimental measurements were therefore carried out on the vegetable rape oil methyl ester/glycerol system. The solubility measurements consisted in bringing together ester and glycerol in excess so as to obtain two distinct phases and to be sure the ester phase is saturated with glycerol, in a thermostat-controlled oven, at the selected temperature, long enough for equilibrium to be reached. A sample is then taken from the ester phase and analysed by gas chromatography according to the method of determining glycerol in ester described in the EN 14,214 standard.

soluble part of glycerol in ester stream [2]: 500 to 700 ppm mass | Climit(glycerol) ([3]; T 20 °C): 320 ppm | Climit(glycerol) ([3]; T 43 °C): 484 ppm | Climit(glycerol) ([3]; T 61 °C): 813 ppm | Climit(glycerol) ([3]; T 80 °C): 1233 ppm
SMILES: OCC(O)CO [glycerol]
solubility in alcohols ([1]; alcohols): infinitely soluble | solubility in benzene ([1]; benzene): totally insoluble | solubility in ethers ([1]; ethers): little soluble | solubility in water ([1]; water): infinitely soluble
